Source: patent publication US8003595B2, “Amino acid sequences facilitating penetration of a substance of interest into cells and/or cell nuclei” (Cellectis, priority 2000, dated 2011)
Read-outs that look alike come from different tables or passages of the source. Where no end group is shown, it is not given here.

Experiments:
[1] = ELISA fixation of biotinylated peptides on sensitized plates; type: binding; conditions: read-out: avidity (Kd), quantity of peptides necessary to obtain 50% fixation, Chondroitin A; Table 5
H1299 cells [2] = assay: Internalization of covalent peptide-peroxidase conjugates; type: cell-based, human; conditions: H1299, 0.2 μg/ml conjugate, 2 hours
In short: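 Peptides coupled via C-terminal cysteine to maleimide-activated peroxidase; uncoupled peptide removed by ultrafiltration. H1299 cells incubated 2 h with increasing conjugate concentrations, washed, lysed; internalized peptide quantified from lysate peroxidase against a conjugate standard curve, as pg/10^3 cells.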

Caco-2 cell monolayers = assay: Integrity of the Caco-2 barrier model in presence of HBP peptides; conditions: Table 30; 30 μg/ml, 8 hours in HBSS; three inserts; listed as HBP7
Experimental: Caco-2 cells were seeded at a density of 160000 cells/cm^2 on a polyethylene terephtalate microporous membranes, previously coated with bovine dermal collagen, in a synthetic serum-free medium (Basal Defined Medium, BDM). Culture medium was changed three times a week and cells were maintained at 37° C. in a an atmosphere of 5% CO2 for 18 days. As a negative control to check the integrity of the Caco-2 barrier, 10^6 dpm/ml D-[^14C]-mannitol was used. […] Other controls included D-[^14C]-mannitol/L-[^3H]-Proline+HBP7 30 μg/ml and D-[^14C]-mannitol/L-[^3H]-proline+HBP10 30 μg/ml.
Trans-epithelial transport experiments were carried out. The trans-epithelial electrical resistance (TEER) was measured to check the integrity of the Caco-2 cell monolayers. The cell monolayers were preincubated in Hanks' balanced salt solution (HBSS, 5 mM glucose, supplemented with 10 mM Hepes) for 8 hours at 37° C. At 1, 2, 4 and 8 hours, 100 μl of medium was collected from the lower compartment and replaced by fresh HBSS. At the end of the experiment (8 hours), the cell monolayers were washed three times with PBS and TEER was measured.

[3] = ELISA fixation of biotinylated peptides on sensitized plates; type: binding; conditions: read-out: avidity (Kd), quantity of peptides necessary to obtain 50% fixation, Chondroitin B; Table 5
HeLa = assay: Internalization of covalent peptide-peroxidase conjugates; type: cell-based, human; conditions: 2 hours
In short: (§1)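 Peptides coupled via C-terminal cysteine to maleimide-activated peroxidase, free peptide removed by ultrafiltration. Cells incubated 2 h with 0.2 μg/ml conjugate; peroxidase dosed in lysates, expressed as pg/10^3 cells.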

[4] = ELISA fixation of biotinylated peptides on sensitized plates; type: binding; conditions: read-out: avidity (Kd), quantity of peptides necessary to obtain 50% fixation, Heparin; Table 5
Experimental: The capacity of peptides SEQ ID NO: 1 to 21 to attach themselves to DNA and heparin is evaluated on ELISA plates sensitized with DNA or heparin. Dilutions of biotinylated peptides are deposited on the plates and their fixation is shown using streptavidin conjugated with peroxidase. […] The avidity of each of the peptides for DNA or heparin is evaluated by the quantity (×10^−6 M) of peptides necessary to obtain 50% fixation.

[5] = as above; type: binding; conditions: read-out: avidity (Kd), quantity of peptides necessary to obtain 50% fixation, Chondroitin C; Table 5
H1299 cells [6] = assay: Inhibition of peptide-peroxidase internalization by drugs or 4° C.; type: cell-based, human; conditions: peptide-peroxidase 0.2 μg/ml, 2 hours
Experimental: To understand the biological mechanisms whereby the peptides penetrate into the cells and their compartmentalization, experiments are done with drugs whose action on certain cell compartments is specific. The peptide-peroxidases were incubated with H1299 cells at a concentration of 0.2 μg/ml for 2 hours in the presence, or not, of a drug. The cells were lysed, and the peroxidase dosed in the cellular lysate.

3T3 = assay: Internalization of covalent peptide-peroxidase conjugates; type: cell-based, mouse; conditions: 2 hours
In short: as §1

[7] = system: gram-positive and gram-negative bacterial strains; assay: Antibacterial activity of cationic peptides, summary over strains; type: cell-based; conditions: summary of Table 29
Experimental: The gram-positive bacterial strains are: Enterococcus faecalis (ATCC 29212), and Staphylococcus aureus (ATCC 25923) and the gram-negative strains are: Escherichia coli (ATCC 25922), Pseudomonas aeruginosa (ATCC 27853) and Salmonella typhimurim (clinical isolate), Salmonella typhiTy2 (WHO). The bacteria are cultured with shaking all night at 37° C., then recultured at a dilution of 1:50 in some fresh Luria-Bertani (LB) medium for 2 hours. The bacterial concentration is adjusted to […], and 50 μl is distributed in 96-well plates with an equal volume of peptides diluted half and half (256-0.5 μg/ml) in LB medium. […] To determine the minimum bactericide concentration, 10 μl from each well is spread on gelose plates in LB medium.
However, when peptide HPB13 (SEQ ID NO: 38) is coupled with peptide SEQ ID NO: 24, it enhances its activity by a factor of 50 to 100 (peptide SEQ ID NO: 45). […] None these peptides are active on gram-positive bacteria.

Q: With GKRKKKGKLGKKRDP [SEQ ID NO: 30] as the sequence, how does the Kd [1] read?
A: Its Kd is 78 nM.

Q: What about the “Internalization of Peptide-peroxidase” value (H1299 cells [2]; Table 9) of the same sequence?
A: Its value is 22.5 pg/10^3 cells.

Q: And the Internalization of Peptide-peroxidase (H1299 cells [2]; Table 9B)?
A: Its Internalization of Peptide-peroxidase is 63.3 pg/10^3 cells.

Q: What about the TEER after incubation (Caco-2 cell monolayers) of the same sequence?
A: The TEER after incubation was 145 Ω · cm^2.

Q: And the Kd [3]?
A: Its Kd is 58 nM.

Q: What about the “Internalization of Peptide-peroxidase” value (HeLa; Table 9, 0.2 μg/ml conjugate) of the same sequence?
A: Its value is 11 pg/10^3 cells.

Q: And the Internalization of Peptide-peroxidase (HeLa; Table 9B, 0.2 μg/ml conjugate)?
A: The Internalization of Peptide-peroxidase was 3.6 pg/10^3 cells.

Q: What about the Kd [4] of the same sequence?
A: The Kd was 54 nM.

Q: What about the Kd [5] of the same sequence?
A: The Kd was 19 nM.

Q: And the “percentage inhibition of peptide internalization” value (“percentage inhibition” below) (H1299 cells [6]; Ammonium chloride (50 mM))?
A: Its value is 70%.

Q: What about the “percentage inhibition” value (H1299 cells [6]; Chloroquin (100 μM)) of the same sequence?
A: Its value is 79%.

Q: And the “percentage inhibition” value (H1299 cells [6]; Genistein (200 μM))?
A: The value was 68%.

Q: What about the “percentage inhibition” value (H1299 cells [6]; Sodium chloride (80 mM)) of the same sequence?
A: Its value is 69%.

Q: What about the “percentage inhibition” value (H1299 cells [6]; Temperature (4° C.)) of the same sequence?
A: Its value is 100%.

Q: And the “Internalization of Peptide-peroxidase” value (3T3; Table 9, 0.2 μg/ml conjugate)?
A: Its value is 48.8 pg/10^3 cells.

Q: What about the Internalization of Peptide-peroxidase (3T3; Table 9B, 0.2 μg/ml conjugate) of the same sequence?
A: The Internalization of Peptide-peroxidase was 44.2 pg/10^3 cells.

Q: What about the “bactericide / anti-microbial activity” value [7] of the same sequence?
A: The value was “no anti-microbial activity”.
